The supplement of paper PMC8882468

Tests used:
Experiment in all cases: CTG-3D luminescence at 96 h relative to day-0 seeding control (ratio to day 0); higher = more growth / less cytotoxicity
HCI-002 = test system: HCI-002 (organoid from a triple-negative breast cancer xenograft)
Experimental: (§1)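 PDxO 3D drug screen (set 2), 8-point dose, 96 h; CTG-3D luminescence normalised to day-0 seeding control (mean of 4 wells each).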

HCI-015 = test system: HCI-015 (organoid from a triple-negative breast cancer xenograft)
Experimental: as §1

HCI-024 = test system: HCI-024 (organoid from a breast cancer xenograft)
Experimental: as §1

HCI-010 = test system: HCI-010 (organoid from a breast cancer xenograft)
Experimental: as §1

HCI-001 = test system: HCI-001 (organoid from a triple-negative breast cancer xenograft)
Experimental: as §1

CC/C(=C(\c1ccc(O)cc1)c1ccc(OCCN(C)C)cc1)c1ccccc1 [4-hydroxytamoxifen]
CTG-3D luminescence at 96 h
Details | 12.5 pM | 0.00025 µM | 0.005 µM | 0.1 µM | 1 µM | 10 µM | 100 µM | 625 fM
HCI-001, days in culture: 365 | 2.24 | 2.14 | 2.59 | 3.06 | 2.55 | 1.86 | 0.0145 | 1.46
HCI-001, days in culture: 397 | 1.66 | 1.84 | 2.19 | 2.62 | 1.93 | 1.21 | 0.00832 | 1.25
HCI-001, days in culture: 401 | 1.75 | 1.39 | 1.52 | 1.38 | 1.26 | 1.52 | 0.00247 | 1.47
HCI-002, days in culture: 127 | 2.42 | 2.73 | 2.8 | 2.99 | 2.6 | 2.18 | 0.0155 | 2.75
HCI-002, days in culture: 155 | 4.99 | 5.16 | 5.23 | 5.86 | 4.71 | 4.14 | 0.0228 | 4.09
HCI-002, days in culture: 168 | 3.07 | 2.97 | 4.33 | 2.96 | 3.6 | 0.901 | 0.00411 | 4.11
HCI-010, days in culture: 79 | 2.04 | 1.84 | 1.96 | 1.93 | 1.9 | 1.48 | 0.00321 | 2.05
HCI-010, days in culture: 86 | 1.97 | 2.48 | 2.21 | 2.15 | 2.19 | 1.35 | 0.0109 | 2.16
HCI-010, days in culture: 102 | 1.1 | 1.13 | 1.07 | 1.2 | 1.23 | 0.95 | 0.00505 | 0.88
HCI-010, days in culture: 164 | 1.4 | 1.46 | 1.45 | 1.45 | 1.38 | 0.899 | 0.00677 | 1.23
HCI-015, days in culture: 333 | 1.04 | 1.94 | 1.26 | 1.29 | 1.39 | 0.469 | 0.0144 | 2.19
HCI-015, days in culture: 355 | 3.76 | 3.54 | 1.5 | 2.75 | 0.935 | 1.57 | 0.00605 | 1.84
HCI-015, days in culture: 369 | 2.01 | 1.59 | 2.11 | 1.32 | 1.19 | 0.943 | 0.00584 | 1.66
HCI-024, days in culture: 202 | 1.48 | 1.18 | 1.56 | 1.67 | 0.953 | 1.09 | 0.00631 | 1.74
HCI-024, days in culture: 231 | 1.05 | 1.07 | 1.18 | 0.978 | 0.782 | 0.83 | 0.00137 | 1.07
HCI-024, days in culture: 254 | 1.94 | 1.16 | 1.05 | 1.38 | 1.28 | 0.958 | 0.00459 | 0.909
